The results in this text go back to patent publication EP0733365A2, “Use of benzoquinolin-3-ones for the treatment and prevention of prostatic cancer” (priority 1995, dated 1996).

The assay addresses T1, Type I 5α-reductase (Homo sapiens, UniProt P18405).
T1 construct: Scalp punch biopsies from graft recipient sites were obtained; from tissue; host or cells: human scalp skin (punch biopsies from hair transplant procedures); 100,000 x g pellet of the homogenate
T1 sequence (P18405 1-259): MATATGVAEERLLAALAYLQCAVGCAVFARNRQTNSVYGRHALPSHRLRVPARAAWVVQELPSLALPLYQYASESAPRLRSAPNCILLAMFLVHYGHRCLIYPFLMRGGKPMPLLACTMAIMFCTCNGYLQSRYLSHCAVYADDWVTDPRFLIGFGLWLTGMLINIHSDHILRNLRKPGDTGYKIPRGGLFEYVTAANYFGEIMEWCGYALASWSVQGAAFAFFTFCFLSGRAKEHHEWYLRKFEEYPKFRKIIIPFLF
Briefly: Human Type I steroid 5α-reductase homogenate assay (conversion of [3H]-testosterone to [3H]-DHT and other 5α-reduced metabolites). Format: biochemical. As to conditions: 0.3 µM concentration of compound, compared to control reaction mixtures; read-out: percent inhibition of Type I 5AR. The procedure:
Methodology of Human Type I Steroid 5α-Reductase Assays
Preparation of Type I 5α-Reductase from Human Scalp: Scalp punch biopsies from graft recipient sites were obtained, following the proper Informed Consent and Institutional Review Board guidelines, from human hair transplant procedures immediately after surgery and were frozen on dry ice and stored at -80°C. Approximately 60-75 punches from one surgical procedure were used to generate an enzyme preparation. The subcutaneous tissue was cut away and discarded. The skin was frozen with liquid nitrogen and pulverized to powder. The powder was homogenized in 30 mL of ice-cold buffer (20 mM Tris-HCl, pH 7.5) using a Brinkmann Polytron (Westbury, NY) with a PTA 10-S probe and a setting of 7. The homogenization procedure consisted of four 15 second pulses. Connective tissue was cleared from the probe with forceps between pulses. The homogenate was then filtered through cheese cloth and the filtrate centrifuged at 100,000 x g for one hour in a Beckman L8-60M ultracentrifuge. The pellet was resuspended by homogenization with a Dounce homogenizer using the same buffer solution. An aliquot was taken for protein determination by the Lowry method, Lowry, et al., Protein Measurement with the Folin Phenol Reagent, J. Biol. Chem., 193, 265-75 (1951). Aliquots of the enzyme preparation were stored at -80° until use. Human 5α-Reductase Homogenate Assay: This enzyme assay is based on the conversion of [^3H]-testosterone to [^3H]-5α -dihydrotestosterone (DHT) and other 5α-reduced metabolites. […] In a total volume of 1.0 mL, the Type I assay contained 2.6 µCi [^3H]-testosterone (50 nM), 500 µM of reduced nicotine adenine dinucleotide phosphate, 100 mM Tris-HCl, pH 7.5, (in Type II assays, 40 mM sodium acetate at pH 5.5 is used instead of Tris-HCl) and test compounds as indicated. Test compounds were added in 20 µL of dimethylsulfoxide (20 µL of dimethylsulfoxide was added to blanks and controls). The reaction was initiated by the addition of 0.5 mg of Type I 5α-reductase. The reaction mixture was incubated at 25° for 180 min, and terminated by the addition of 1 mL ice-cold stopping solution. The stopping solution contained 40 µM each of non-radioactive testosterone, DHT, androstenedione, androstanedione, androsterone, androstan-3β17β- diol, and androstan-3α,17β-diol. The samples were prepared for high performance liquid chromatography by solid phase extraction. Disposable solid matrix extraction columns (C-18 reversed phase, 6 mL, 500 mg; Bond Elut™ from Analytichem International; Harbor City, CA) were conditioned by washing with 5 mL of methanol followed by 5 mL of deionized water. The reaction mixtures were then applied to the columns. The columns were subsequently washed with 5 mL of acetone:water (1:4), followed by 0.3 mL of methanol. The samples were then eluted with 3 mL of methanol and collected in 20 mL scintillation vials. Three mL of water was then added to each scintillation vial. The solutions were then transferred to tubes and centrifuged for 30 min at 1000 x g to remove any particulate material before chromatography. The [^3H]-testosterone substrate and its metabolites were separated by chromatography using a C-18 reversed phase column (Beckman Ultrasphere 5µm spherical 80A pore, part no. 235329, 4.6 mm i.d. x […]) with an isocratic mobile phase (46 water: 46 methanol: 8 tetrahydrofuran by volume). The column temperature was maintained at 35° and the flow rate was 1.5 mL/min. A 400 µL aliquot was injected onto the column and radioactivity was determined using a Beckman 171 in-line flow radioisotope detector in conjunction with Rainin Dynamax™ software and a Macintosh computer. The flow rate of the Atomflow™ scintillation fluid was 4.5 mL / min.

On to `CN1C(=O)CC[C@]2(C)c3ccc(/C=C/c4cncc5ccccc45)cc3CC[C@@H]12` [Example 281, (4aR)-(10bR)-4,10b-dimethyl-8-(2-[4-isoquinolinyl]ethenyl)-1,2,3,4,4a,5,6,10b-octahydrobenzo[f]quinolin-3-one], for which the inhibition at 0.3 µM turned out to be 75%.
